Data on 18 molecules can be found in BindingDB's records for doi:10.7270/Q2930RSV (Burnham Center For Chemical Genomics, 2012).

Where only a bound is given, the exact number is not on record here.

For orientation: IC50 means the concentration needed to halve the response being measured. Low values mean inhibition by little substance, high ones a need for much substance.

This assay has as its target T1, Caspase-3 (Homo sapiens, UniProt P42574).
T1 sequence (P42574 whole entry): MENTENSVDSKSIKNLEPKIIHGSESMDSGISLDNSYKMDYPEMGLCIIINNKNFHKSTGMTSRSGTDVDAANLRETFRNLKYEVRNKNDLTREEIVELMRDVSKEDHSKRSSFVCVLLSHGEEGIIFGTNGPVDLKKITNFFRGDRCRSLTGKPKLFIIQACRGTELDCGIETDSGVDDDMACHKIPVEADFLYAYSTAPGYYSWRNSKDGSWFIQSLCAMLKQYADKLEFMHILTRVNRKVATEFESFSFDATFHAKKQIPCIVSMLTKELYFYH
On to `CCCCOc1cc(NCc2ccccc2)c2ncn(C(C)C)c2c1`, for which the IC50 was greater than 100 µM.
`CC1(C)Cc2c(nn(-c3ccccc3)c(=N)c2C#N)CO1`: the IC50 stood at 1.09 µM.
Take `CC(C)(C)c1ccc(C(=O)NNc2cc(N3CCCCC3)nc(N3CCCCC3)n2)cc1`: the IC50 was greater than 100 µM.
To `NS(=O)(=O)c1ccc(CCNC(=O)COC(=O)c2ccc([N+](=O)[O-])o2)cc1` belongs greater than 100 µM; to `CCC(=O)c1ccc(OCc2cn(CC(=O)c3ccc(O)cc3)nn2)cc1` [1-[4-[[1-[2-(4-hydroxyphenyl)-2-oxoethyl]triazol-4-yl]methoxy]phenyl]propan-1-one], greater than 100 µM; to `CCN(CC)c1ccc(NC2CC(=O)N(CCc3ccc(OC)cc3)C2=O)cc1` (stereo not drawn) [3-[4-(diethylamino)anilino]-1-[2-(4-methoxyphenyl)ethyl]pyrrolidine-2,5-dione], greater than 100 µM.
Under `COC(=O)c1ccc(C)cc1C1CN=NC12Cc1cc(C)ccc1C2=O` (stereo not drawn) [4-methyl-2-(6-methyl-3-oxo-4'-spiro[1H-indene-2,5'-3,4-dihydropyrazole]yl)benzoic acid methyl ester] stands greater than 100 µM; under `O=[N+]([O-])c1ccc(-n2[n-]c(=[N+]3CCOCC3)cc2O)cc1` [5-(4-morpholinyl)-2-(4-nitrophenyl)-4H-pyrazol-3-one], greater than 100 µM.
`Cc1[nH]n(-c2ccccc2)c(=O)c1S(=O)(=O)c1ccccc1` [5-methyl-2-phenyl-4-(phenylsulfonyl)-1H-pyrazol-3-one] showed an IC50 greater than 100 µM.
`CN(C)c1ccc(NC(=O)c2ccc(Cn3cc([N+](=O)[O-])cn3)cc2)cc1` [MLS000727576] had an IC50 greater than 100 µM.
To `COc1ccc(NC(=O)NNc2cc(N3CCOCC3)nc(N3CCOCC3)n2)cc1` [MLS000765810] belongs greater than 100 µM.
To `N#CC1(CCCN2CCCCC2)c2ccccc2CCc2ccccc21` [MLS001178552] belongs greater than 100 µM; to `O=C(COC(=O)c1ccc([N+](=O)[O-])s1)NCCc1ccccc1` [MLS002159124], greater than 100 µM; to `CN(C)c1cc(N=NCc2ccccc2)nc(N(C)C)n1` [N2,N2,N4,N4-tetramethyl-N6-[(phenylmethylidene)amino]pyrimidine-2,4,6-triamine], 50.7 µM.
To `O=C(NNc1cc(N2CCCC2)nc(N2CCCC2)n1)c1ccc([N+](=O)[O-])cc1` [N'-(2,6-dipyrrolidin-1-ylpyrimidin-4-yl)-4-nitrobenzohydrazide] belongs greater than 100 µM; to `O=C(CCc1ccccc1)NNc1cc(N2CCCCC2)nc(N2CCCCC2)n1` [N'-[2,6-di(piperidin-1-yl)pyrimidin-4-yl]-3-phenylpropanehydrazide], greater than 100 µM.
As to `COc1ccc(-c2csc(CCn3[nH]c(C)cc3=O)n2)cc1` [SMR000347900], the IC50 was greater than 100 µM.
Molecule `CC(NC(=O)COC(=O)c1ccc([N+](=O)[O-])s1)c1ccccc1` (stereo not drawn) [[2-oxo-2-(1-phenylethylamino)ethyl] 5-nitrothiophene-2-carboxylate] had an IC50 greater than 100 µM.
